In PMC7956476, “Quinoline Functionalized Schiff Base Silver (I) Complexes: Interactions with Biomolecules and In Vitro Cytotoxicity, Antioxidant and Antimicrobial Activities” (Molecules, 2021):
Where two headings read alike, the source gives them in different places.

What was measured:
[1] = Ferric reducing antioxidant power (FRAP) assay; assay type: biochemical; settings: done in triplicate
Description: Antioxidants are important in protecting the human body against damage by reactive oxygen species (ROS). Accumulation of ROS in the cells may lead to damage of the DNA, RNA, and proteins which subsequently leads to several physiological disorders such as cardiovascular disease, diabetes, rheumatism, atherosclerosis, cancer, aging and cell death. […] The free radical scavenging ability of all ligands and complexes in this study were investigated using ferric reducing antioxidant power (FRAP). In antioxidant studies, FRAP assay is often preferred because it is simple, fast, economical, and direct in antioxidant measurement. FRAP assay is based on the electron-donating ability of an antioxidant compound. This involves the reduction of a colorless Fe^3+ tripyridyltriazine complex (Fe^3+ (TPTZ)) to an intense blue-colored Fe^2+ tripyridyltriazine complex (Fe^2+ (TPTZ)) by the electron-donating antioxidants at low pH [69]. The reducing power is to determine the reductive ability of the test compounds.
Antioxidant activity studies of L1–L5 and Q1–Q15 were done using ferric reducing antioxidant power (FRAP) assay. The ferric reducing antioxidant power assay is often used to evaluate the ability of an antioxidant to donate an electron. […] The resulting mixture was incubated at 50 °C for 20 min, and 2.5 mL of 10% trichloroacetic acid was added to acidify the mixture. After that, 1 mL of the acidified mixture was added to 1 mL of distilled water and 0.5 mL of 0.1% FeCl3. The absorbance of the resulting solution was then measured at 700 nm. The antioxidant power of the compounds was expressed as a percentage of ferric reducing antioxidant power Ascorbic acid equivalent, as shown in Equation (4). (4) % FRAP =Absorbance of Absorbance of Sample/Absorbance of Ascorbic Acid ×100

CT-DNA-EB adduct = test: Fluorescence competitive displacement of ethidium bromide from CT-DNA; assay type: binding, calf; settings: for CT-DNA-EB-Complex Ksv (M^−1) × 10^4: Stern–Volmer quenching constant, 25 °C; for CT-DNA-EB-Complex Kq (M^−1S^−1) × 10^12: bimolecular quenching constant, Ksv = Kqτo, τo 10^−8 s; for CT-DNA-EB-Complex Kbin (M^−1) × 10^5: binding constant from double-logarithmic plot
Description: The Stern–Volmer plot approach was used based on the fact that the Stern–Volmer plots for Q1–Q15 (Figure 5c), were linear an indication of only one mechanism for the quenching fluorescence, i.e., either dynamic or static. […] (1) Ksv=Kqτo where Ksv, Kq, and τo represent Stern–Volmer quenching constant, bimolecular quenching constant, and an average lifetime of the fluorophore in the absence of the quencher, respectively. τₒ normally takes about 10^−8 s in biomacromolecules.
The double-logarithmic Equation (2) was used in determining the binding constant of complexes Q1–Q15 and CT-DNA. (2) logFo−F/F=logKb+n logQ
A competitive displacement study was carried out using fluorescence spectroscopy between CT-DNA pre-treated with ethidium bromide (EB) and complexes Q1–Q15 to establish the complexes′ actual mode of binding to CT-DNA. […] The competitive luminescence displacement assay was done using a modified method. Pre-treated 15 µM solution of EB with 15 µM of CT-DNA was prepared in a phosphate buffer of pH 7.2 and left to equilibrate for 30 min. Keeping CT-DNA-EB concentrations constant, different concentrations (0–20 µM) of the complexes were added at 8 min incubation interval at room temperature. The fluorescence quenching ability of CT-DNA bound EB by the complexes were recorded in the wavelength range of 530–700 nm with an excitation wavelength at 525 nm at 25 °C. (6) Fo/F=1+KSVQ=1+KqτoQ
A Stern–Volmer (Equation (6)) was used to evaluate the CT-DNA-EB fluorescence quenching of the complexes. Where Fo and F denote the relative fluorescence intensities of CT-DNA in the absence and presence of the quencher, Ksv, Stern–Volmer quenching constant, [Q], quencher concentration, Kq, bimolecular quenching constant and τo, average lifetime of the fluorophore in the absence of the quencher which is typically equal to 10^−8 s in biomacromolecules.

[2] = system: Staphylococcus aureus ATCC 25923; test: Minimum inhibitory concentration (MIC), spotting on Müeller–Hinton agar; assay type: cell-based; settings: Gram + Ve, S. aureus, 37 °C, 18 h
Procedure: (§1) Sterilized Nutrient agar medium was first prepared by dissolving 38 g of Müeller–Hinton agar (MHA) (Biolab, Midrand, Africa) in distilled water (1 L). […] The cooled Agar medium was poured in Petri dishes while ensuring a uniform 4 mm depth of the medium and cooling further to ambient temperature.
(§2) These bacteria were inoculated in a sterilized Nutrient Broth (NB) (Biolab, Midrand, Africa) through streak plate technique and incubated at 37 °C for 18 h. The nutrient broth was sterilized by dissolving 1.3 g in distilled water (100 mL). Ca. 10 mL of the nutrient broth was transferred into a cotton wool-plugged test tubes and wrapped with an aluminium foil. […] Following this was the isolation of a single colony of the bacteria and inoculated into a 10 mL sterile NB which was then incubated in a shaking incubator at 37 °C for 18 h. Each of the bacteria strain concentrations was adjusted with sterile distilled water to get a final concentration of 1.5 × 10^8 cfu/mL, i.e., 0.5 Mc Farland’s Standard using a densitometer (Mc Farland Latvia). The bacteria were lawn inoculated on the set MHA Petri dishes using a sterile cotton swab. Screening of L1–L5 and Q1–Q15 for antibacterial activity was first carried out by spotting 5 µL of their solution (prepared from the dissolution of 1000 µg of the L1–L5 and Q1–Q15 in 1 mL dimethyl sulfoxide (DMSO)) on an MHA petri dish and incubated at 37 °C for 18 h. The antibacterial activity was determined by looking out for a clear zone at the spotting point.

[3] = system: Salmonella typhimurium ATCC 14026; test: as above; assay type: cell-based; settings: Gram − Ve; S. typhi; 37 °C, 18 h
Procedure: as §1, §2

[4] = system: Pseudomonas aeruginosa ATCC 27853; test: as above; assay type: cell-based; settings: Gram − Ve; P. aeruginosa; 37 °C, 18 h
Procedure: as §1, §2

[5] = system: Staphylococcus aureus ATCC 700699 (methicillin-resistant); test: as above; assay type: cell-based; settings: Gram + Ve; methicillin-resistant S. aureus; 37 °C, 18 h
Procedure: as §1, §2

[6] = system: Escherichia coli ATCC 25922; test: as above; assay type: cell-based; settings: Gram − Ve, E. coli, 37 °C, 18 h
Procedure: as §1, §2

[7] = molecular target: bovine serum albumin (BSA) (Bos taurus, UniProt P02769); test: Albumin binding by absorption spectroscopy titration
Sequence of bovine serum albumin (BSA) (P02769 25-607): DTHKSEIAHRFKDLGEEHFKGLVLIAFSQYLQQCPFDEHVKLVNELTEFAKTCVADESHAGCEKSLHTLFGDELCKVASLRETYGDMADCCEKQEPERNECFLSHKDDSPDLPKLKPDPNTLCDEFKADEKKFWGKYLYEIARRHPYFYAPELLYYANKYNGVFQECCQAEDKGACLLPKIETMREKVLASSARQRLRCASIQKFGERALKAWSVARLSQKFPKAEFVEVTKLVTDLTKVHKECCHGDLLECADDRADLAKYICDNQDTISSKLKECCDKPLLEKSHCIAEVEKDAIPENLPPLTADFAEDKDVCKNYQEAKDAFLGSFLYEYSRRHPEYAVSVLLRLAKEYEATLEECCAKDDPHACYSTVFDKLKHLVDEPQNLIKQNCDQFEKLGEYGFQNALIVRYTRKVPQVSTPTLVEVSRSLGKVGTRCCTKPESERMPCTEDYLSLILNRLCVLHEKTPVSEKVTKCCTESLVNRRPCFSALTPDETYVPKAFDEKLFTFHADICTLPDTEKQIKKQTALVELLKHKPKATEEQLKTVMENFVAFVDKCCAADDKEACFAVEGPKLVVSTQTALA
Description: Bovine serum albumin (BSA) was used as the protein standard in this study because of its close resemblance to human serum albumin (HSA), its stability, high solubility, neutrality in many biochemical reactions and low cost. In protein binding study, absorption spectroscopy titration is a known method used in studying the conformational changes in proteins, and this protein is characterized by an intense absorbance peak at 280 nm depicting the microenvironment around tyrosine and tryptophan residue polarity.
The absorbance assay of albumin binding is a very simple method used in identifying the conformational changes in protein. […] A stock solution of bovine serum albumin (BSA) was prepared by dissolving an appropriate amount of BSA in phosphate buffer saline solution (pH 7.2) under constant stirring for 1 h at 25 °C. It was kept at 4 °C and used within four days. […] The stock solution of the complex was prepared by dissolving 1 mmol of the complexes in DMSO. The absorption titration assay was done by adding different concentrations (0–10 µM) of the complexes to a constant BSA concentration (6 µM). The sample solution was incubated after each addition of the concentrations for 10 min at 25 °C before recording the absorbance at λmax 280 nm.

calf thymus DNA (CT-DNA) = test: CT-DNA electronic absorption titration (Wolfe–Shimer); assay type: binding; settings: for CT-DNA-Cmp. Kb (M^−1) × 10^5: intrinsic binding constant, absorption titration, PBS pH 7.2
Procedure: The interaction of the L1–L5 and complexes Q1–Q15 with calf thymus-DNA was carried out in a Phosphate buffer saline solution pH 7.2 stored at 4 °C. The DNA stock solution was prepared by dissolving CT-DNA sodium salt in Phosphate buffer saline solution with continuous stirring overnight. It was filtered and stored at 4 °C and used within four days. […] A fixed amount of the L1–L5 and complexes Q1–Q15 (50 µM) were prepared by dissolving an appropriate amount in DMSO. […] Therefore, in all the experimental of the interaction of L1–L5 and complexes Q1–Q15 with biomolecules, the final concentration of DMSO in the incubation mixture was ~2% (v/v).
The binding modes of L1–L5 and complexes Q1–Q15 to CT-DNA were characterized through electronic absorption titration by varying concentrations of CT-DNA (0–30 µM) in phosphate buffer saline solution against fixed concentrations (20 µM) of L1–L5 and complexes Q1–Q15. […] The absorbance of CT-DNA is cancelled by adding equivalent amounts of CT-DNA to both the tested compounds and the reference solutions.

[Ag+].[O-][Cl+3]([O-])([O-])[O-] [AgClO4, silver perchlorate, reference compound]
Antioxidant (IC50 mg/mL) FRAP [1]: 0.88 ± 0.051 mg/mL | CT-DNA-EB-Complex Ksv (M^−1) × 10^4 (CT-DNA-EB adduct; EB displacement): 3.31 (M^−1) × 10^4 | CT-DNA-EB-Complex Kq (M^−1S^−1) × 10^12 (CT-DNA-EB adduct): 3.31 (M^−1S^−1) × 10^12 | CT-DNA-EB-Complex Kbin (M^−1) × 10^5 (CT-DNA-EB adduct): 6.00 (M^−1) × 10^5 | Minimum inhibitory concentration, SA [2]: 3.125 µg/mL | Minimum inhibitory concentration, ST [3]: 0.2 µg/mL | Minimum inhibitory concentration, PA [4]: 0.8 µg/mL | Minimum inhibitory concentration, MRSA [5]: 6.25 µg/mL | Minimum inhibitory concentration, EC [6]: 25 µg/mL | Protein-Complex Kb (M^−1) × 10^4 ([7]; BSA absorption titration, 280 nm, 25 °C): 4.82 (M^−1) × 10^4 | hypochromic shift in the absorption bands on addition of CT-DNA (calf thymus DNA (CT-DNA); absorption titration with CT-DNA): 23.64–50.86% | CT-DNA-Cmp. Kb (M^−1) × 10^5 (calf thymus DNA (CT-DNA)): 3.30 (M^−1) × 10^5

C(=NCc1cccs1)c1ccc2ccccc2n1.C(=NCc1cccs1)c1ccc2ccccc2n1.[Ag+].[O-][Cl+3]([O-])([O-])[O-] [Complex Q10, [Ag(L5)2]ClO4]
Antioxidant (IC50 mg/mL) FRAP [1]: 0.98 ± 0.055 mg/mL | CT-DNA-EB-Complex Ksv (M^−1) × 10^4 (CT-DNA-EB adduct; EB displacement): 2.98 (M^−1) × 10^4 | binding constant (Kbin) to CT-DNA (CT-DNA-EB adduct; as given in the text, EB displacement, double-logarithmic plot): 961000 M⁻¹ | CT-DNA-EB-Complex Kq (M^−1S^−1) × 10^12 (CT-DNA-EB adduct): 2.98 (M^−1S^−1) × 10^12 | CT-DNA-EB-Complex Kbin (M^−1) × 10^5 (CT-DNA-EB adduct): 9.61 (M^−1) × 10^5 | Minimum inhibitory concentration, SA [2]: 25 µg/mL | Minimum inhibitory concentration, ST [3]: 100 µg/mL | Minimum inhibitory concentration, PA [4]: 1.6 µg/mL | Minimum inhibitory concentration, MRSA [5]: 1000 µg/mL | Minimum inhibitory concentration, EC [6]: 6.25 µg/mL | Protein-Complex Kb (M^−1) × 10^4 [7]: 8.01 (M^−1) × 10^4 | CT-DNA-Cmp. Kb (M^−1) × 10^5 (calf thymus DNA (CT-DNA)): 5.00 (M^−1) × 10^5

Clc1ccc(N=Cc2ccc3ccccc3n2)cc1.Clc1ccc(N=Cc2ccc3ccccc3n2)cc1.O=[N+]([O-])[O-].[Ag+] [Complex Q3, [Ag(L3)2]NO3]
Antioxidant (IC50 mg/mL) FRAP [1]: 4.75 ± 0.0042 mg/mL | CT-DNA-EB-Complex Ksv (M^−1) × 10^4 (CT-DNA-EB adduct; EB displacement): 3.93 (M^−1) × 10^4 | CT-DNA-EB-Complex Kq (M^−1S^−1) × 10^12 (CT-DNA-EB adduct): 3.93 (M^−1S^−1) × 10^12 | CT-DNA-EB-Complex Kbin (M^−1) × 10^5 (CT-DNA-EB adduct): 9.17 (M^−1) × 10^5 | Minimum inhibitory concentration, SA [2]: 50 µg/mL | Minimum inhibitory concentration, ST [3]: 50 µg/mL | Minimum inhibitory concentration, PA [4]: 12.5 µg/mL | Minimum inhibitory concentration, MRSA [5]: 50 µg/mL | Minimum inhibitory concentration, EC [6]: 25 µg/mL | Protein-Complex Kb (M^−1) × 10^4 [7]: 5.11 (M^−1) × 10^4 | CT-DNA-Cmp. Kb (M^−1) × 10^5 (calf thymus DNA (CT-DNA)): 15.7 (M^−1) × 10^5

Fc1ccccc1/N=C/c1ccc2ccccc2n1 [Complex L1, (E)-N-(2-fluorophenyl)-1-(quinolin-2-yl)methanimine]
Antioxidant (IC50 mg/mL) FRAP [1]: 22.42 ± 0.0048 mg/mL | MIC ([2]; Staphylococcus aureus, ATCC25923, read-out: Minimum inhibitory concentration, SA): 100 µg/mL | MIC ([6]; Escherichia coli, ATCC25922, read-out: Minimum inhibitory concentration, EC): 1000 µg/mL | CT-DNA-Cmp. Kb (M^−1) × 10^5 (calf thymus DNA (CT-DNA)): 1.38 (M^−1) × 10^5

C(=NCc1cccs1)c1ccc2ccccc2n1.C(=NCc1cccs1)c1ccc2ccccc2n1.O=S(=O)([O-])C(F)(F)F.[Ag+] [Complex Q15, [Ag(L5)2]CF3SO3]
Antioxidant (IC50 mg/mL) FRAP [1]: 3.35 ± 0.012 mg/mL | CT-DNA-EB-Complex Ksv (M^−1) × 10^4 (CT-DNA-EB adduct; EB displacement): 2.48 (M^−1) × 10^4 | CT-DNA-EB-Complex Kq (M^−1S^−1) × 10^12 (CT-DNA-EB adduct): 2.48 (M^−1S^−1) × 10^12 | CT-DNA-EB-Complex Kbin (M^−1) × 10^5 (CT-DNA-EB adduct): 5.29 (M^−1) × 10^5 | Minimum inhibitory concentration, ST [3]: 1000 µg/mL | Minimum inhibitory concentration, PA [4]: ~0.8 µg/mL | Minimum inhibitory concentration, MRSA [5]: 100 µg/mL | Minimum inhibitory concentration, EC [6]: 25 µg/mL | Protein-Complex Kb (M^−1) × 10^4 [7]: 13.1 (M^−1) × 10^4 | CT-DNA-Cmp. Kb (M^−1) × 10^5 (calf thymus DNA (CT-DNA)): 4.00 (M^−1) × 10^5
